Data: patent publication US9518240B2, “Process for the treatment of liquefied hydrocarbons using 3-(piperazine-1-YL)propane-1,2-diol compounds” (Dow Global Technologies LLC, priority 2012, dated 2016)

Assays:
[1] = heptane 10 g, toluene 0.1 g (internal standard), amine 2.5 g; mixed at 20° C. for 1 hour, decanted 15 minutes; average of three injections
[2] = pKa by automated Mettler Toledo titration; settings: water (50 weight % aqueous amine solution)

| area counts (averaged GC peak area of tested amine in neat heptane phase) [1] | pKa [2] | Structure (SMILES) |
| --- | --- | --- |
| 132 area counts | 9.5 | OCC(O)CN1CCNCC1 (stereo not drawn) [PPD, 3-(piperazine-1-YL)propane-1,2-diol] |
| 13748 area counts |  | C1CNCCN1 [Piperazine] |
